Measured values: US6703361B2, “Method of treating or preventing Type 1 diabetes by oral administration of insulin” (AutoImmune Inc., priority 1990, dated 2004)
Entries after “also recorded” stand apart in the source; their conditions may differ.

B1: myelin basic protein (protein, UniProt P02687 1-169, looked up)
Myelin basic protein: AAQKRPSQRSKYLASASTMDHARHGFLPRHRDTGILDSLGRFFGSDRGAPKRGSGKDGHHAARTTHYGSLPQKAQGHRPQDENPVVHFFKNIVTPRTPPPSQGKGRGLSLSRFSWGAEGQKPGFGYGGRASDYKSAHKGLKGHDAQGTLSKIFKLGGRDSRSGSPMARR
notes: myelin basic protein (obtained from Pel Freez) fed as a control protein

Columns and labels:
Format in all cases: in vivo
diabetes in NOD mice = assay: Effect of aerosol administration of insulin on diabetes in NOD mice (Example 4); conditions: insulin 0 to 1 mg in aerosol form by nebulizer; expected
Protocol: Insulin (0 to 1 mg as in Examples 1 and 2) will be administered to NOD mice as described above in Examples 1 and 2 except in aerosol form by nebulizer.

[1] = tested on: NOD mice suffering from hyperglycemia; assay: Treatment of initial stages of diabetes in NOD mice (Example 5); conditions: oral and aerosol administration to hyperglycemic NOD mice; expected
Protocol: Insulin (0 to 1 mg as in Examples 1 and 2) will be administered to NOD mice which are suffering from hyperglycemia in an oral and aerosol form. The treatments will begin by weeks 12-20 of age, by which the serum glucose levels are at hyperglycemic concentrations in a certain percentage of animals prior to onset of diabetes.

[2] = tested on: spontaneous diabetes in NOD mice; assay: Effect of feeding porcine insulin on spontaneous diabetes in NOD mice (Example 1)
Description: NOD (non-obese diabetic mice) were obtained from Taconic Laboratories (Germantown, Mass.) at 4 weeks of age. There were a total of 30 animals in each of the groups mentioned below at the beginning of the experiment. At 4½ weeks of age, animals were orally administered Porcine insulin (Novo Laboratories, Danbury, Conn.). Each animal received two treatments orally twice a week until 9 weeks of age. The mice were fed either saline (control) or 10 micrograms, 100 micrograms, or 1 milligram of Porcine insulin. The animals were fed (gavaged) with an 18 gauge ball-point needle (Popper and Sons, Inc., New Hyde Park, N.Y.). Beginning at 10 weeks the animals were then fed once a week for a total of 33 weeks. Beginning at 12 weeks the urine was tested weekly for the presence of glucose using Glucosuria test tape (Eli Lilly, Indianapolis, Ind.). If an animal tested 3+ or higher on the glucose urine test, a serum sample was taken and blood glucose measured using a glucose analyzer (Beckman). If the blood glucose was 220 or higher, the animals were classified as diabetic and then sacrificed.

[3] = tested on: blood glucose in fasting NOD mice; assay: Glucose post oral insulin in fasting 7 week NOD mice (Example 2); conditions: for blood glucose after feeding: 1 mg fed orally, fasting 7 week old NOD mice
Protocol: In order to determine whether any endocrinologic (i.e. direct lowering of blood sugar) effects occurred following the feeding of insulin, 7 week old NOD mice (5 mice per group) were fed 1 mg of porcine insulin or 1 mg of myelin basic protein (obtained from Pel Freez, Rogers, Ark.) as a control protein. Blood glucose was then measured over the next 24 hour period. As a positive control, a separate group of animals were injected subcutaneously with 20 micrograms of Porcine insulin. All animals were kept in the fasting state.

insulitis in NOD mice = assay: Preliminary experiments on insulitis in insulin-fed NOD mice; conditions: NOD mice fed 1 mg of insulin vs PBS-fed, data not shown
Description: Therefore, oral administration of insulin to NOD mice appeared to be affecting the infiltration of immune system cells into the pancreas and thus halting disease progression by preserving beta cell function.

Molecule	prevention of manifestation of symptoms (hyperglycemia) of Type 1 diabetes (diabetes in NOD mice)	beta cell function [1]	serum glucose concentrations [1]	development of diabetes ([2]; NOD mice fed 1 mg insulin orally)	development of diabetes ([2]; NOD mice fed 10 micrograms insulin orally)	development of diabetes ([2]; NOD mice fed 100 micrograms insulin orally)	incidence of diabetes ([2]; all doses of orally administered insulin tested (10 micrograms, 100 micrograms, 1 mg))	blood glucose after feeding [3]	endocrinologic (metabolic) effects from feeding ([3]; 1 mg oral insulin, NOD mice)	period over which the glucose decrease persisted ([3]; 20 micrograms porcine insulin injected subcutaneously, fasting NOD mice)	decrease in glucose level ([3]; 20 micrograms porcine insulin injected subcutaneously, fasting NOD mice (positive control))	inflammatory immune system cells surrounding the pancreas (insulitis) (insulitis in NOD mice)
Porcine insulin	effective in preventing the manifestation of symptoms	preservation of beta cell function	reduction in serum glucose concentrations to near normal levels	none of the mice went on to develop diabetes; also recorded: no diabetes developed; also recorded: None of the animals developed diabetes	diabetes developed	diabetes developed	lower incidence of diabetes; also recorded: reduced the numbers of these mice which subsequently went on to develop diabetes	no drop in the blood glucose	not a metabolic effect; also recorded: no endocrinologic (metabolic) effects	4 h	approximately 80 mg %	fewer inflammatory immune system cells surrounding the pancreas
B1								no drop in the blood glucose				
